The text below walks through data of patent US20230172930A1, “USE OF COMPLEMENT FACTOR D INHIBITORS ALONE OR IN COMBINATION WITH ANTI-C5 ANTIBODIES FOR TREATMENT OF PAROXYSMAL NOCTURNAL HEMOGLOBINURIA” (Alexion Pharmaceuticals, Inc., priority 2020, published 2023).

This data set deals with PNH patients with an inadequate response to eculizumab. As to the kind of experiment: Phase 2 study: safety and tolerability (TEAEs).

Description: After completing 24 weeks of treatment, patients entered a long-term extension.

Take `CC(=O)c1nn(CC(=O)N2C[C@H](F)C[C@H]2C(=O)Nc2cccc(Br)n2)c2ccc(-c3cnc(C)nc3)cc12` [Danicopan, danicopan]: the “discontinuations due to TEAEs” value (11 patients completing treatment) is recorded as “no discontinuations due to TEAEs”. Where the note is “Day 70, resolved by Day 77, attributed to breakthrough hemolysis”, the “Grade 3 direct bilirubin elevation with grade 1 ALT elevation” value is “One patient experienced a Grade 3 direct bilirubin elevation”. For the same compound, the “severe adverse event of pneumonia requiring hospitalization” value (Day 145, recovered Day 152, relationship to study drug considered unlikely) is on record as “The second patient experienced a severe adverse event of pneumonia”. Where the note is “N=11”, the “Number of Patients Reporting a TEAE, %” value is “(100) %”. Also, under “TEAE, N=11”, the “Abdominal pain, %” value is listed as “(18) %”; the “Contusion, %” value is “(18) %”; the “Cough, %” value is given as “(18) %”; the “Fatigue, %” value was “(18) %”. In addition, for the setting “TEAE, N=11”, the “Headache, %” value is recorded as “(27) %”; the “Nasopharyngitis, %” value was “(18) %”; the “Nausea, %” value was “(18) %”; the “Oropharyngeal, %” value was “(18) %”. Further, the “Pain in extremity, %” value (TEAE, N=11) was “(18) %”. The tolerability entry (danicopan 100-200 mg TID + eculizumab, 24 weeks) is given as “generally well tolerated”. Also, under “of twelve enrolled, considered unlikely related to danicopan”, the “discontinuation due to serious adverse event (worsening pulmonary hypertension/edema)” value was “One discontinued after 2 doses”. Besides, the “TEAEs mild to moderate in severity” value (share of treatment TEAEs) is 96%.
